Assay results taken from ChEMBL document CHEMBL1153251, “Biaryl piperidines as potent and selective delta opioid receptor ligands” (Bioorg Med Chem Lett, 2010).

Tests used:
[1] = (§1) Clearance in human liver microsomes; type: ADME, Microsome; details: liver microsomes
[2] = molecular target: T1, Delta-type opioid receptor (Homo sapiens, UniProt P41143); experiment: Antagonist activity at delta opioid receptor by GTPgammaS bunding assay; type: functional
Mu-type opioid receptor = Mu-type opioid receptor (Homo sapiens, UniProt P35372); experiment: Displacement of [3H]diprenorphine from human mu opioid receptor expressed in CHO cells by liquid scintillation counting
[3] = molecular target: T1, Delta-type opioid receptor; experiment: Displacement of [3H]diprenorphine from human delta opioid receptor expressed in CHO cells by liquid scintillation counting
[4] = molecular target: Kappa-type opioid receptor (Homo sapiens, UniProt P41145); experiment: Displacement of [3H]diprenorphine from human kappa opioid receptor expressed in CHO cells by liquid scintillation counting
Liver microsomes = experiment: as §1; type: ADME, Microsome; details: microsomes

Chain of Mu-type opioid receptor (P35372 whole entry): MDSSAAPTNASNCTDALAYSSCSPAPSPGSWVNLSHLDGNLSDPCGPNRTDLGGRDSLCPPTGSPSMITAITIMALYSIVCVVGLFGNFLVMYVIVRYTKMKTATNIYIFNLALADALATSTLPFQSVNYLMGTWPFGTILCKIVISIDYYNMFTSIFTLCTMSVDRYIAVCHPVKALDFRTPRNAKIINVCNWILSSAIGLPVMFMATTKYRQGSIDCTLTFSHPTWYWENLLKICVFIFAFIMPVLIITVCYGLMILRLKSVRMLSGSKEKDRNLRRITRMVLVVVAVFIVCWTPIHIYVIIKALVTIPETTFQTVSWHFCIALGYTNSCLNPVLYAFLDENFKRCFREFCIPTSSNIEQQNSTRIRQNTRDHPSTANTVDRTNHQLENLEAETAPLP
Chain of Kappa-type opioid receptor (P41145 whole entry): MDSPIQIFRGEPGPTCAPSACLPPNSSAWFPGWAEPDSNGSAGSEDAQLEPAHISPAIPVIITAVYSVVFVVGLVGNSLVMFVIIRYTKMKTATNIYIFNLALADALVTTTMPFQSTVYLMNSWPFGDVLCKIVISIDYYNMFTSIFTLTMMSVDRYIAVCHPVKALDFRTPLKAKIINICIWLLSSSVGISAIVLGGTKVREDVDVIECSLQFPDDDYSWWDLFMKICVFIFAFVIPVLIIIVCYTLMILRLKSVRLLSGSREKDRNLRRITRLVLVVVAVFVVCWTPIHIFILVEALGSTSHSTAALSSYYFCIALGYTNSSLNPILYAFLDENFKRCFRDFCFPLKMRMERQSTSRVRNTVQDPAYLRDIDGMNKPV
T1 sequence (P41143 whole entry): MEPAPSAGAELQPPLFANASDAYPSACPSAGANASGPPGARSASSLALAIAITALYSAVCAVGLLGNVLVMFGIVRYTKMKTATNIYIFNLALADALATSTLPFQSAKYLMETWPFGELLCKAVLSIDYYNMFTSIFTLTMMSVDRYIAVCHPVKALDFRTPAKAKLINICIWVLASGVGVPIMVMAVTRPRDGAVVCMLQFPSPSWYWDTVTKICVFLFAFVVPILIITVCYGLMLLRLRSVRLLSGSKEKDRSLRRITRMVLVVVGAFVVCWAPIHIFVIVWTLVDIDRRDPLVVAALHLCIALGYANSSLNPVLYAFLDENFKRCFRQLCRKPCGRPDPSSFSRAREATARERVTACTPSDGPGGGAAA

SMILES	CLint scaled [1]	IC50 [2]	Ki (Mu-type opioid receptor)	Ki [3]	Ki [4]	CL (Liver microsomes)
CCCCN1CCCC(c2ccc(C(=O)N(CC)CC)cc2)(c2cccc(O)c2)C1 (stereo not drawn)	113 mL/min/kg	0.055 µM	> 0.89 µM	0.0062 µM	> 0.89 µM	–
CCN(C)C(=O)c1ccc(C2(c3cccc(O)c3)CCCN(CC3CC3)C2)cc1 (stereo not drawn)	70 mL/min/kg	–	0.052 µM	0.0022 µM	0.066 µM	–
CCC(O)(CC)c1ccc(C2(c3cccc(C(N)=O)c3)CCN(CC3CC3)CC2)cc1	26.1 mL/min/kg	0.282 µM	> 0.89 µM	0.0023 µM	0.079 µM	–
CCCC(C)CN1CCC(c2ccc(C(O)(CC)CC)cc2)(c2cccc(C(N)=O)c2)CC1 (stereo not drawn)	108 mL/min/kg	0.0047 µM	0.38 µM	0.002 µM	0.045 µM	–
CCN(CC)C(=O)c1ccc(C2(c3cccc(C(N)=O)c3)CCCN(Cc3nccs3)C2)cc1 (stereo not drawn)	–	0.012 µM	> 0.89 µM	0.007 µM	> 0.89 µM	Not Active
CC(C)(O)c1ccc(C2(c3cccc(O)c3)CCCN(CC3CC3)C2)cc1 (stereo not drawn)	22 mL/min/kg	–	0.11 µM	0.039 µM	0.041 µM	–
CCN(CC)C(=O)c1ccc(C2(c3cccc(O)c3)CCN(CC3CC3)CC2)cc1	62.9 mL/min/kg	0.155 µM	> 0.89 µM	0.009 µM	0.44 µM	–
CCN(CC)C(=O)c1ccc(C2(c3cccc(O)c3)CCN(CCc3ccccc3)CC2)cc1	239 mL/min/kg	–	0.0665 µM	0.0009 µM	0.095 µM	–
CCCC(C)CN1CCC(c2ccc(C(=O)N(CC)CC)cc2)(c2cccc(O)c2)CC1 (stereo not drawn)	–	–	> 0.89 µM	0.0018 µM	> 0.89 µM	Not Active
CCN(CC)C(=O)c1ccc(C2(c3cccc(O)c3)CCCN(CC(F)(F)F)C2)cc1 (stereo not drawn)	> 300 mL/min/kg	–	> 0.89 µM	0.0029 µM	0.024 µM	–
CCCC(C)CN1CCC(c2ccc(C(=O)N(C)C)cc2)(c2cccc(O)c2)CC1 (stereo not drawn)	80 mL/min/kg	0.072 µM	> 0.89 µM	0.011 µM	0.15 µM	–
CCN(CC)C(=O)c1ccc(C2(c3cccc(O)c3)CCCN(CC3CC3)C2)cc1 (stereo not drawn)	89 mL/min/kg	0.0071 µM	0.035 µM	0.0008 µM	0.024 µM	–
CCN(CC)C(=O)c1ccc(C2(c3cccc(O)c3)CCCN(Cc3nccs3)C2)cc1 (stereo not drawn)	> 300 mL/min/kg	0.016 µM	> 0.89 µM	0.0035 µM	0.163 µM	–
CCN(CC)C(=O)c1ccc(C2(c3cccc(O)c3)CCCN(Cc3ncc[nH]3)C2)cc1 (stereo not drawn)	230 mL/min/kg	–	> 0.89 µM	0.0012 µM	> 0.89 µM	–
C=CCN1CCC(c2ccc(C(=O)N(CC)CC)cc2)(c2cccc(O)c2)CC1	34.6 mL/min/kg	–	> 0.89 µM	0.0019 µM	0.347 µM	–
